From a compilation of properties of binary mixtures (doi:10.1016/j.jct.2011.12.003)

Experiment: xn = mol fraction of the nth substance listed
Settings: 101 kPa

CCCCCCO + CCCCCCCC[n+]1ccc2ccccc2c1.O=S(=O)([N-]S(=O)(=O)C(F)(F)F)C(F)(F)F
x1 = 1
Settings	viscosity [mPa·s]
298.15 K	4.48
308.15 K	3.34
318.15 K	2.54
338.15 K	1.56

CCCCO + CCCCCCCC[n+]1ccc2ccccc2c1.O=S(=O)([N-]S(=O)(=O)C(F)(F)F)C(F)(F)F
x1 = 1
Settings	viscosity [mPa·s]
298.15 K	2.54
308.15 K	1.98
318.15 K	1.57
328.15 K	1.26
338.15 K	1.03

OCCc1ccccc1 + CCCCCCCC[n+]1ccc2ccccc2c1.O=S(=O)([N-]S(=O)(=O)C(F)(F)F)C(F)(F)F
x1 = 1
Settings	viscosity [mPa·s]
298.15 K	10.9
308.15 K	7.19
318.15 K	4.98
328.15 K	3.64
338.15 K	2.77

CCCCCCCC[n+]1ccc2ccccc2c1.O=S(=O)([N-]S(=O)(=O)C(F)(F)F)C(F)(F)F + CCCCCCO
viscosity [mPa·s]
Settings	x2 = 0	x2 = 0.0854	x2 = 0.2857	x2 = 0.3673	x2 = 0.4981	x2 = 0.5825	x2 = 0.6854	x2 = 0.7913
298.15 K	369	287.4	136.9	95.1	58.56	42.65	28.18	17.78
308.15 K	191	153.3	78.6	56.09	35.72	26.62	18.08	11.64
318.15 K	108.7	89.2	–	35.66	23.49	17.79	12.37	8.11
328.15 K	67.9	56.19	32.57	24.14	16.33	12.59	8.87	5.88
338.15 K	44.8	37.54	22.77	17.2	11.88	9.24	–	4.44

CCCCCCCC[n+]1ccc2ccccc2c1.O=S(=O)([N-]S(=O)(=O)C(F)(F)F)C(F)(F)F + CCCCO
viscosity [mPa·s]
Settings	x2 = 0	x2 = 0.0865	x2 = 0.1708	x2 = 0.3134	x2 = 0.4036	x2 = 0.5032	x2 = 0.6067	x2 = 0.6915	x2 = 0.7937	x2 = 0.9314
298.15 K	369	276	205	–	84.3	–	33.87	22.84	12.59	6.1
308.15 K	191	151.2	115.2	–	51.64	34.34	21.89	–	8.77	4.39
318.15 K	108.7	89.2	69.5	44.66	32.98	22.81	15.04	10.61	–	3.32
328.15 K	67.9	56.1	–	29.85	22.59	16.01	10.88	7.77	4.72	2.58
338.15 K	44.88	37.87	31.27	–	16.68	11.78	8.15	–	–	2.06

CCCCCCCC[n+]1ccc2ccccc2c1.O=S(=O)([N-]S(=O)(=O)C(F)(F)F)C(F)(F)F + OCCc1ccccc1
viscosity [mPa·s]
Settings	x2 = 0	x2 = 0.0851	x2 = 0.1985	x2 = 0.3101	x2 = 0.3748	x2 = 0.4969	x2 = 0.5766	x2 = 0.695	x2 = 0.8076	x2 = 0.8956
298.15 K	369	305	219	153.5	126.8	79.7	–	40.23	26.6	–
308.15 K	191	161.9	119.7	86.7	72.7	47.31	36.67	–	16.96	12.09
318.15 K	108.7	93.8	–	53.23	–	30.33	–	16.64	11.53	8.35
328.15 K	67.9	–	45.88	35.03	–	20.59	–	–	8.23	5.99
338.15 K	44.8	–	31.17	24.37	–	14.79	12.01	–	6.09	4.45
